The term ΔTm denotes the change in melting temperature against a reference sample.

The source of these data is paper PMC6447596 (2019).

The test system of test [1] is Oligo A (DNA, G4) GGATGGGGTGGGGAGG
The test is described as follows: CD melting (264 nm). Conditions: 5 mM K+, 95 mM Li+ (5 K buffer); 5 µM oligo; 2 eq RHPS4; 10 mM Li cacodylate pH 7.2.

Test [2] has the same test system. The test is described as follows: UV-Vis titration. Conditions: 5 mM K+, 95 mM Li+ (5 K buffer); 10 mM Li cacodylate pH 7.2; 20 µM RHPS4 titrated with annealed oligo; two-state direct fit.
Test [3] relates to Oligo B (DNA, G4) GGGGGATGCGGGGG
Kind of test: CD melting (260 nm alone, 295 nm with RHPS4). Conditions: 5 mM K+, 95 mM Li+ (5 K buffer); 5 µM oligo; 2 eq RHPS4; 10 mM Li cacodylate pH 7.2.

For test [4] the test system is unchanged. Kind of test: UV-Vis titration. Conditions: 5 mM K+, 95 mM Li+ (5 K buffer); 10 mM Li cacodylate pH 7.2; 20 µM RHPS4 titrated with annealed oligo; two-state direct fit.
For test [5], the system named is F21D (DNA, G4) GGGTTAGGGTTAGGGTTAGGG
Kind of test: FRET melting. Conditions: 5 mM K+, 95 mM Li+ (5 K buffer); 10 mM Li cacodylate pH 7.2; 0.2 µM F21D; sub-micromolar RHPS4; printed 'at least 15 °C'.

As to `Cc1cc2c3c([n+](C)c4ccc(F)cc4c3c1)-c1cc(F)ccc1N2C`, the melting temperature increase stood at 7.2 °C in test [1] and 14.9 °C in test [3]. The Ka in test [2] and in test [4] was 0.5 ± 0.3 × 10^6 /M throughout. Also, the ΔTm in test [5] stood at 15 °C.
